The text below walks through data of US9586962B2, “Disubstituted octahydropyrrolo [3,4-C] pyrroles as orexin receptor modulators” (Janssen Pharmaceutica NV, priority 2011, dated 2017).

For the experiment, the target named is human orexin 2 receptor (Homo sapiens (Human), UniProt O43614). Nature of the experiment: Human orexin 2 receptor radioligand binding ([3H]EMPA competition, HEK293 cells). Particulars: HEK293 cells expressing human orexin-2 receptor, read-out: OR 2 Ki.

Usually Ki stands for the dissociation constant of the complex between target and ligand, obtained from inhibition or displacement.

human orexin 2 receptor, sequence (O43614 whole entry): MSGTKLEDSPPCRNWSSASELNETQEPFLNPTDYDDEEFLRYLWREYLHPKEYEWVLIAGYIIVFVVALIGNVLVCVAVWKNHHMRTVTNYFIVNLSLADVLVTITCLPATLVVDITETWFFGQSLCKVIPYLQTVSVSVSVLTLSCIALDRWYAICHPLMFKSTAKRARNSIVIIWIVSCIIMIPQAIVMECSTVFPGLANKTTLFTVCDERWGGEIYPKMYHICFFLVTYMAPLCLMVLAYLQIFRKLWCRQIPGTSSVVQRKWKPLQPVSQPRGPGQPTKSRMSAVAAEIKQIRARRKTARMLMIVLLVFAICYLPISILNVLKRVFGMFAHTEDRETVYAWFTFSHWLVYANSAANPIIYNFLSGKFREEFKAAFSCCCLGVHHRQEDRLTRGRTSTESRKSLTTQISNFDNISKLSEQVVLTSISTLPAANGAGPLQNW

Regarding `Cc1cc(C)nc(N2CC3CN(C(=O)c4c(F)cccc4-c4[nH]ncc4C(F)(F)F)CC3C2)n1` (stereo not shown) [Example 478, 2-(4,6-Dimethylpyrimidin-2-yl)-5-({2-fluoro-6-[4-(trifluoromethyl)-1H-pyrazol-5-yl]phenyl}carbonyl)octahydropyrrolo[3,4-c]pyrrole], the Ki is 49 nM.
The same measure for `COc1cccnc1-c1c(F)cccc1C(=O)N1CC2CN(c3cnc4cc(F)c(F)cc4n3)CC2C1` (stereo not shown) [Example 453, 6,7-Difluoro-2-[5-{[3-fluoro-2-(3-methoxypyridin-2-yl)phenyl]carbonyl}hexahydropyrrolo[3,4-c]pyrrol-2(1H)-yl]quinoxaline]: 47 nM; for `Cc1cc(C)nc(N2CC3CN(C(=O)c4c(F)cccc4-c4nccs4)CC3C2)n1` (stereo not shown) [Example 476, 2-(4,6-Dimethylpyrimidin-2-yl)-5-{[2-fluoro-6-(1,3-thiazol-2-yl)phenyl]carbonyl}octahydropyrrolo[3,4-c]pyrrole]: 15 nM.
For the molecule `Cc1cc(C)nc(N2CC3CN(C(=O)c4c(F)cccc4-c4ncccc4F)CC3C2)n1` (stereo not shown) [Example 481, 2-(4,6-Dimethylpyrimidin-2-yl)-5-{[2-fluoro-6-(3-fluoropyridin-2-yl)phenyl]carbonyl}octahydropyrrolo[3,4-c]pyrrole], the Ki was 24 nM.
For the molecule `Cc1cc(C)nc(N2CC3CN(C(=O)c4cccc5c4OCC5)CC3C2)n1` (stereo not shown) [Example 463, 2-(2,3-Dihydro-1-benzofuran-7-ylcarbonyl)-5-(4,6-dimethylpyrimidin-2-yl)octahydropyrrolo[3,4-c]pyrrole], the Ki is 4000 nM.
In the case of `Cc1cc(C)nc(N2CC3CN(C(=O)c4c(F)cccc4-c4cncs4)CC3C2)n1` (stereo not shown) [Example 487, 2-(4,6-Dimethylpyrimidin-2-yl)-5-{[2-fluoro-6-(1,3-thiazol-5-yl)phenyl]carbonyl}octahydropyrrolo[3,4-c]pyrrole], the Ki was 54 nM.
`CCOc1ncccc1C(=O)N1CC2CN(c3ncc4cc(F)ccc4n3)CC2C1` (stereo not shown) [Example 448, 2-{5-[(2-Ethoxypyridin-3-yl)carbonyl]hexahydropyrrolo[3,4-c]pyrrol-2(1H)-yl}-6-fluoroquinazoline]: the Ki came to 340 nM.
Regarding `Cc1cc(C)nc(N2CC3CN(C(=O)c4nc(C)ccc4-c4ncccn4)CC3C2)n1` (stereo not shown) [Example 421, 2-(4,6-Dimethylpyrimidin-2-yl)-5-[(6-methyl-3-pyrimidin-2-ylpyridin-2-yl)carbonyl]octahydropyrrolo[3,4-c]pyrrole], the Ki is 108 nM.
The value for `CSc1nccc(-c2cccc(F)c2C(=O)N2CC3CN(c4nc(C)cc(C)n4)CC3C2)n1` (stereo not shown) [Example 485, 2-(4,6-Dimethylpyrimidin-2-yl)-5-({2-fluoro-6-[2-(methylsulfanyl)pyrimidin-4-yl]phenyl}carbonyl)octahydropyrrolo[3,4-c]pyrrole] was 84 nM; that for `Cc1nc(N2CC3CN(C(=O)c4ncc(Cl)cc4-n4nccn4)CC3C2)nc(C)c1C` (stereo not shown) [Example 442, 2-{[5-Chloro-3-(2H-1,2,3-triazol-2-yl)pyridin-2-yl]carbonyl}-5-(4,5,6-trimethylpyrimidin-2-yl)octahydropyrrolo[3,4-c]pyrrole] was 26 nM; that for `O=C(c1cccc(F)c1-c1cscn1)N1CC2CN(c3cnc4cc(F)c(F)cc4n3)CC2C1` (stereo not shown) [Example 455, 6,7-Difluoro-2-[5-{[3-fluoro-2-(1,3-thiazol-4-yl)phenyl]carbonyl}hexahydropyrrolo[3,4-c]pyrrol-2(1H)-yl]quinoxaline] was 32 nM.
Take `CCOc1ccc(C)nc1C(=O)N1CC2CN(c3cc(N(C)C)nc(C)n3)CC2C1` (stereo not shown) [Example 420, 6-{5-[(3-Ethoxy-6-methylpyridin-2-yl)carbonyl]hexahydro-pyrrolo[3,4-c]pyrrol-2(1H)-yl}-N,N,2-trimethylpyrimidin-4-amine]: the inhibitory constant (Ki) turned out to be 1350 nM.
In the case of `Cc1cc(CO)nc(N2CC3CN(C(=O)c4cccc(F)c4-c4nc(C)no4)CC3C2)n1` (stereo not shown) [Example 436, {2-[5-{[3-Fluoro-2-(3-methyl-1,2,4-oxadiazol-5-yl)phenyl]carbonyl}hexahydropyrrolo[3,4-c]pyrrol-2(1H)-yl]-6-methylpyrimidin-4-yl}methanol], the Ki was 21 nM.
